Laboratory results taken from US20190252037A1 (priority 2016, published 2019).

Test system: FluB polymerase K631A+R634A
Type: binding, human influenza B/Memphis/13/03

“Pol II CTD peptide, four heptad repeats Tyr-Ser-Pro-Thr-SerP-Pro-Ser (28 amino acids), FAM-labelled at the N-terminal end for binding assays (Covalab) [28-mer SeP5 peptide]” was tested, and the “decrease in the binding affinity compared to wild type” value was 2.5 fold.
